The values that follow come from US20250026724A1, “(1,4,5-TRISUBSTITUTED 1H-PYRAZOL-3-YL)OXY-2-ALKYLTHIOALKYL ACIDS AND -ALKYL ACID DERIVATIVES, SALTS THEREOF AND USE THEREOF AS ACTIVE HERBICIDAL INGREDIENTS” (BAYER AKTIENGESELLSCHAFT, priority 2021, published 2025).

What all share (assay): Post-emergence herbicidal action, greenhouse pot trial
Common to all, as to assay type: in vivo

One assay relates to Bassia scoparia (KCHSC). As to conditions: for pest or weed control at 80 g/ha / pest or weed control at 320 g/ha: Bassia scoparia, 504 h, read-out: Post-emergence effect against KCHSC. The essentials:
(§1)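 Activity scored visually roughly 3 weeks post-spray on a 0–100% scale against untreated plants, 100% meaning death. Treatment was post-emergence at one-leaf stage, aqueous spray of WP/EC formulation with 0.5% additive at 600 l/ha water, ≤320 g/ha. Plants grown in sandy loam under greenhouse conditions.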

For another assay, the system named is Veronica persica (VERPE). The conditions noted are these: visual rating after about 3 weeks; for pest or weed control at 320 g/ha: Veronica persica, 504 h, read-out: Post-emergence effect at 320 g/ha against VERPE in %. In short, it runs like this: as §1
Another assay relates to Avena fatua (AVEFA). As to conditions: visual rating after about 3 weeks; for pest or weed control at 320 g/ha: Avena fatua, 504 h, read-out: Post-emergence effect at 320 g/ha against AVEFA in %. In short, it runs like this: as §1
The next assay relates to Lolium rigidum (LOLRI). As to conditions: visual rating after about 3 weeks; for pest or weed control at 320 g/ha: Lolium rigidum, 504 h, read-out: Post-emergence effect at 320 g/ha against LOLRI in %. The essentials:
as §1

The test system of a further assay is Viola tricolor (VIOTR). The conditions noted are these: for pest or weed control at 20 g/ha / pest or weed control at 80 g/ha / pest or weed control at 320 g/ha: Viola tricolor, 504 h, read-out: Post-emergence effect against VIOTR. The essentials:
as §1

Assay [1] has as its system Digitaria sanguinalis (DIGSA). As to conditions: visual rating after about 3 weeks; for pest or weed control at 320 g/ha: Digitaria sanguinalis, 504 h, read-out: Post-emergence effect at 320 g/ha against DIGSA in %. The essentials: as §1
Assay [2] has as its system Echinochloa crus-galli (ECHCG). The conditions noted are these: visual rating after about 3 weeks; for pest or weed control at 320 g/ha: Echinochloa crus-galli, 504 h, read-out: Post-emergence effect at 320 g/ha against ECHCG in %. In short, it runs like this:
as §1

In assay [3] the test system is Alopecurus myosuroides (ALOMY). As to conditions: visual rating after about 3 weeks. The essentials: as §1
In assay [4] the test system is Matricaria inodora (MATIN). The conditions noted are these: Tripleurospermum inodorum, 504 h, visual rating after about 3 weeks; for pest or weed control at 80 g/ha: read-out: Post-emergence effect at 80 g/ha against MATIN in %; for pest or weed control at 320 g/ha: read-out: Post-emergence effect at 320 g/ha against MATIN in %. In short, it runs like this:
as §1

Assay [5] relates to Abutilon theophrasti (ABUTH). The conditions noted are these: visual rating after about 3 weeks; for pest or weed control at 80 g/ha / pest or weed control at 320 g/ha: Abutilon theophrasti, 504 h; for pest or weed control at 80 g/ha: read-out: Post-emergence effect at 80 g/ha against ABUTH in %; for pest or weed control at 320 g/ha: read-out: Post-emergence effect at 320 g/ha against ABUTH in %. In short, it runs like this: as §1

The test system of assay [6] is Amaranthus retroflexus (AMARE). The conditions noted are these: visual rating after about 3 weeks; for pest or weed control at 80 g/ha / pest or weed control at 320 g/ha: Amaranthus retroflexus, 504 h; for pest or weed control at 80 g/ha: read-out: Post-emergence effect at 80 g/ha against AMARE in %; for pest or weed control at 320 g/ha: read-out: Post-emergence effect at 320 g/ha against AMARE in %. The essentials:
as §1

Assay [7] relates to Pharbitis purpurea (PHBPU). The conditions noted are these: visual rating after about 3 weeks; for pest or weed control at 320 g/ha: read-out: Post-emergence effect at 320 g/ha against PHBPU in %. The essentials:
as §1

In a further assay the test system is Setaria viridis (SETVI). The conditions noted are these: Setaria viridis, 504 h, 320 g/ha, visual rating after about 3 weeks, read-out: Post-emergence effect at 320 g/ha against SETVI in %. In short, it runs like this:
as §1

Assay [8] concerns Polygonum convolvulus (POLCO). As to conditions: Fallopia convolvulus, 504 h, visual rating after about 3 weeks; for pest or weed control at 80 g/ha: read-out: Post-emergence effect at 80 g/ha against POLCO in %; for pest or weed control at 320 g/ha: read-out: Post-emergence effect at 320 g/ha against POLCO in %. The essentials: as §1

For the molecule `CCOC(=O)C(Oc1nn(-c2ccccc2F)c(-c2ccc(F)nc2)c1Br)SC` (single isomer, unassigned) [Example I-40], the “Post-emergence effect at 20 g/ha against KCHSC in %” value in the assay on Bassia scoparia (KCHSC) (20 g/ha, visual rating after about 3 weeks) was 80%. In addition, in the assay with Bassia scoparia (KCHSC), the pest or weed control at 80 g/ha was found to be 90% and the pest or weed control at 320 g/ha was 90%. In addition, the “Post-emergence effect at 20 g/ha against VERPE in %” value in the assay with Veronica persica (VERPE) (20 g/ha) came to 80%. Further, in the assay on Veronica persica (VERPE), the “Post-emergence effect at 80 g/ha against VERPE in %” value came to 80% and the pest or weed control at 320 g/ha was 80%. The “Post-emergence effect at 20 g/ha against AVEFA in %” value in the assay with Avena fatua (AVEFA) (20 g/ha) was determined as 80%. The “Post-emergence effect at 80 g/ha against AVEFA in %” value with Avena fatua (AVEFA) (80 g/ha) is listed as 90%. In addition, the pest or weed control at 320 g/ha in the assay on Avena fatua (AVEFA) turned out to be 90%. In the assay on Lolium rigidum (LOLRI) (20 g/ha), the “Post-emergence effect at 20 g/ha against LOLRI in %” value is on record as 80%. Also, in the assay on Lolium rigidum (LOLRI) (80 g/ha), the “Post-emergence effect at 80 g/ha against LOLRI in %” value is reported as 80%. The “Post-emergence effect at 320 g/ha against LOLRI in %” value in the assay on Lolium rigidum (LOLRI) (320 g/ha) was 90%. The “Post-emergence effect against VIOTR” value in the assay on Viola tricolor (VIOTR) (320 g/ha) was 80%. Besides, the “Post-emergence action at 20 g/ha against DIGSA in %” value in assay [1] (20 g/ha) is 90%. Further, in assay [1], the “Post-emergence effect at 80 g/ha against DIGSA in %” value is 90%. Moreover, the “Post-emergence effect at 320 g/ha against DIGSA in %” value in [1] (320 g/ha) was 90%. Moreover, the “Post-emergence effect at 20 g/ha against ECHCG in %” value in assay [2] (20 g/ha) turned out to be 80%. Further, the “Post-emergence effect at 80 g/ha against ECHCG in %” value in assay [2] (80 g/ha) was determined as 80%. Moreover, in assay [2] (320 g/ha), the “Post-emergence effect at 320 g/ha against ECHCG in %” value came to 90%. For the same molecule, in assay [3] (20 g/ha), the “Post-emergence effect at 20 g/ha against ALOMY in %” value turned out to be 80%. Besides, in [3] (80 g/ha), the “Post-emergence effect at 80 g/ha against ALOMY in %” value worked out at 80%. Moreover, in assay [3] (320 g/ha), the “Post-emergence effect at 320 g/ha against ALOMY in %” value stood at 80%.

Take `CCOC(=O)C(Oc1nn(-c2ncccc2F)c(-c2cncc(F)c2)c1C1CC1)SC` (stereo not shown) [Example I-41]: the pest or weed control at 320 g/ha in the assay with Bassia scoparia (KCHSC) turned out to be 90%; in the assay on Veronica persica (VERPE), 80%; in [4] it was 90%; in the assay with Avena fatua (AVEFA), 100%; in assay [5] it was 90%; in [6], 90%. Further, the pest or weed control at 320 g/ha was determined as 80% in [7] (Ipomoea purpurea, 504 h); 90% with Viola tricolor (VIOTR) (320 g/ha); 90% in the assay with Setaria viridis (SETVI); 90% in assay [8]; 90% in assay [2] (320 g/ha); 80% in [3] (Alopecurus myosuroides, 504 h, 320 g/ha, read-out: Post-emergence effect at 320 g/ha against ALOMY in %). In addition, the pest or weed control at 80 g/ha stood at 80% in [4]; 90% in assay [5]; 90% in assay [6]; 90% in the assay with Viola tricolor (VIOTR); 80% in assay [8]. In assay [5] (20 g/ha), the “Post-emergence action at 20 g/ha against ABUTH in %” value is reported as 80%. Also, the “Post-emergence effect at 20 g/ha against AMARE in %” value in assay [6] (20 g/ha) was 80%. In addition, the pest or weed control at 20 g/ha with Viola tricolor (VIOTR) was 90%.

As for `CSC(Oc1nn(-c2ncccc2F)c(-c2cncc(F)c2)c1Br)C(=O)O` (stereo not shown) [Example I-42], the pest or weed control at 80 g/ha with Bassia scoparia (KCHSC) came to 90%; in [4] it was 80%; in [5], 80%; in [6], 90%; in assay [7] (Ipomoea purpurea, 504 h, 80 g/ha, read-out: Post-emergence effect at 80 g/ha against PHBPU in %) it was 80%; with Viola tricolor (VIOTR), 90%. Besides, in assay [8], the pest or weed control at 80 g/ha turned out to be 80%. The pest or weed control at 320 g/ha is 90% in the assay with Bassia scoparia (KCHSC); 80% in the assay on Veronica persica (VERPE); 90% in [4]; 100% in the assay on Avena fatua (AVEFA); 90% in assay [5]; 90% with Lolium rigidum (LOLRI) (320 g/ha). Further, the pest or weed control at 320 g/ha in assay [6] was found to be 90%; in [7] (Ipomoea purpurea, 504 h), 90%; in the assay with Viola tricolor (VIOTR) (320 g/ha), 90%; in the assay with Setaria viridis (SETVI) it was 90%; in [8] it was 90%; in assay [1] (320 g/ha), 90%. Moreover, the pest or weed control at 320 g/ha in assay [2] (320 g/ha) came to 90%. The “Post-emergence effect at 20 g/ha against PHBPU in %” value in assay [7] (20 g/ha) was found to be 80%. Further, in the assay on Viola tricolor (VIOTR), the pest or weed control at 20 g/ha was determined as 90%. In addition, in [1], the “Post-emergence effect at 80 g/ha against DIGSA in %” value came to 80%.

For `COC(=O)C(Oc1nn(-c2ncccc2F)c(-c2cncc(F)c2)c1C1CC1)SC` (stereo not shown) [Example I-66], the pest or weed control at 320 g/ha in the assay on Bassia scoparia (KCHSC) was 90%; in the assay with Veronica persica (VERPE), 90%; in assay [4] it was 90%; with Avena fatua (AVEFA) it was 80%; in assay [5] it was 90%; in the assay with Lolium rigidum (LOLRI) (320 g/ha), 90%. The pest or weed control at 320 g/ha was 90% in assay [6]; 90% in assay [7] (Ipomoea purpurea, 504 h); 90% in the assay with Viola tricolor (VIOTR) (320 g/ha); 80% in the assay with Setaria viridis (SETVI); 80% in [8]; 80% in [1] (320 g/ha). Further, in [2] (320 g/ha), the pest or weed control at 320 g/ha amounted to 90%. Moreover, in the assay with Veronica persica (VERPE), the “Post-emergence effect at 80 g/ha against VERPE in %” value is given as 90%. The pest or weed control at 80 g/ha in [4] amounted to 80%; in [5] it was 80%; in [6], 90%; with Viola tricolor (VIOTR), 90%; in assay [8] it was 80%. For the same molecule, in the assay with Viola tricolor (VIOTR), the pest or weed control at 20 g/ha is 90%.
